Consider five molecules from paper PMC3731359 (PLoS ONE, 2013).

In test [1] the target is T1, NAE (Homo sapiens, UniProt Q13564+Q8TBC4).
T1 construct: made in house; host or cells: E. coli BL21(DE3)pLysS
T1 sequence (Q8TBC4 22-463 limits assumed): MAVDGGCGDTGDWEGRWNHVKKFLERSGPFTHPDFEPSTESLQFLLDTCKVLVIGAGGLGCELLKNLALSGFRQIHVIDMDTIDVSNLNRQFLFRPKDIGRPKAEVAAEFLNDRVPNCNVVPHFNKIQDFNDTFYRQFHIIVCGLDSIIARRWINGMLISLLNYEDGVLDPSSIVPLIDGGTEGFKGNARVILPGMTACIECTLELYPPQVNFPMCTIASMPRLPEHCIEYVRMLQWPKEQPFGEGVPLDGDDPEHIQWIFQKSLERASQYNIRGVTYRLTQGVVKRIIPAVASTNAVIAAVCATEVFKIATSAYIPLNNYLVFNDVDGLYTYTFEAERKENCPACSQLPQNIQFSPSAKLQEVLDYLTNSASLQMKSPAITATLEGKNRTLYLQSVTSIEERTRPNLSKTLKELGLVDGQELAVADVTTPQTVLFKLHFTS
T1 sequence (Q13564 1-534 partner): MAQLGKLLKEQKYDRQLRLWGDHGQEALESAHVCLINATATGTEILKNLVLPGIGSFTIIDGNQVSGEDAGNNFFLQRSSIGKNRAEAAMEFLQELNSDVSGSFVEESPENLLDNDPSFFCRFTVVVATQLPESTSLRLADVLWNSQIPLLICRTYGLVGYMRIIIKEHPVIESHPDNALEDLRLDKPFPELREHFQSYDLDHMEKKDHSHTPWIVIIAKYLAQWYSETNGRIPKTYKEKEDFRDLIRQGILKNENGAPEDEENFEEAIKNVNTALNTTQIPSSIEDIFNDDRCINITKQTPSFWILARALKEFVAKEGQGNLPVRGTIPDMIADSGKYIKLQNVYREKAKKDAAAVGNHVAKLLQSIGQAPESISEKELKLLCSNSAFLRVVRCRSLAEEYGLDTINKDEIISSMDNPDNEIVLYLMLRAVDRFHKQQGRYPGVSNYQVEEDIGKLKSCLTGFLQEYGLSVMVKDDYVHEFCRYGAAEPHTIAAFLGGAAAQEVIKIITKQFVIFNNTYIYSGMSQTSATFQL
The note with it: cited from earlier work. From the text:
[…] binds to the nucleotide binding pocket of NAE as an AMP analog with a sulfamate ...

The next test deals with NAE (E1). As to the kind of experiment: Western blot: formation of UB∼NAE thioester conjugates. The format is biochemical. The note with it: 5 µM HA-tagged protein, 1 µM NAE, 1 mM ATP, 1 h, room temperature, anti-HA Western blot. As to the method: (§1) Figure 6 Transfer of phage selected UB variants to NAE (E1), Ubc12 (E2), and cullin-3. HA-tagged wt UB, wt Nedd8 and UB variants were used in the assay. In the control reaction, either Ubc12 or cullin-3 in complex with Rbx1 was missing. The blots were probed with a mouse anti-HA antibody and a goat anti-mouse IgG antibody linked to HRP.
(§2) 20 µL of the reaction mixture were loaded on a 4–15% SDS-PAGE gel (Bio-Rad). After electrophoresis, the protein bands were electroblotted onto a piece of polyvinylidene fluoride membrane (Bio-Rad). The membrane was blocked with 3% BSA in TBS buffer for 1 hour followed by incubation with 3% BSA in TBS buffer containing 1∶500 diluted 200 µg/mL anti-HA antibody (Santa Cruz Biotechnology) and 1∶10,000 diluted anti-mouse horseradish peroxidase conjugate (Pierce) for 1 hour, respectively. The membrane was then washed 5 times with TBS-T buffer and 5 times with TBS buffer followed by detection with the ECL luminescent detection kit (GE Healthcare).

Another test deals with Ubc12 (E2). The test can be described thus: Western blot: transfer of UB variants to Ubc12. The note with it: 5 µM HA-tagged protein, 1 µM NAE, 1 µM Ubc12, 1 µM cullin, 1 mM ATP, 1 h, room temperature, anti-HA Western blot. The format is biochemical. As to the method:
as §1, §2

A further test concerns cullin-3. As to the kind of experiment: Western blot: transfer of UB variants to cullin-3. The note with it: 5 µM HA-tagged protein, 1 µM NAE, 1 µM Ubc12, 1 µM cullin, 1 mM ATP, 1 h, room temperature, anti-HA Western blot. The class given is biochemical. Here is the method: as §1, §2
(In general: In western blotting, separated proteins are transferred to a membrane and probed.)

For test [2], the target named is T1, NAE. The note with it: Arg72Ala mutant of UB by site directed mutagenesis; cited from earlier work.
A further test addresses NAE (Homo sapiens) (UniProt Q13564). The note with it: cited from earlier work.
A further test deals with UAE. The note with it: Ala72 of Nedd8 mutated to Arg; cited from earlier work. From the text:
As expected the two proteins also adopt very similar structures featuring the β-grasp fold. Their E1 enzymes are also homologous to each other in both peptide sequences and crystal structures, except that NAE is a heterodimer of two subunits, APPBP1 and Uba3, while UAE is composed of a single chain [8], [20], [21].

Another test addresses T2, Ubc12 (UniProt P61081 1-183).
T2 construct: also called E2; source: expressed and purified as previously reported [33]
T2 sequence (looked up): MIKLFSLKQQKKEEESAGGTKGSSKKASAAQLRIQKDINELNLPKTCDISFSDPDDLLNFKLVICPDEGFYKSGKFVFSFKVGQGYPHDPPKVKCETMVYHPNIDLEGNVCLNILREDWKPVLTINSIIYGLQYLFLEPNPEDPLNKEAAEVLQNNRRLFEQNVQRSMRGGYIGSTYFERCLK
The test can be described thus: thioester conjugate formation (SDS-PAGE, Western blot); 5 µM biotin labeled peptide with 1 µM NAE, 1 µM Ubc12 and 1 µM cullin, 1 mM ATP, 10 mM MgCl2, 50 µM DTT, TBS, 1 hour, room temperature; streptavidin-HRP blot; covalent conjugates. The note with it: both partners purified.

Ends that are not written are not given here. * marks the point of attachment. Biotin = O=C1N[C@H]2[C@H](CS[C@H]2CCCCC(=O)*)N1

In the case of `NS(=O)(=O)OC[C@@H]1C[C@@H](n2ccc3c(N[C@H]4CCc5ccccc54)ncnc32)C[C@@H]1O` [MLN4924], the “inhibition of NAE” value at NAE [1] is given as “potent inhibitor of NAE”.

Turning to “N26: UB variant with single Arg72Ala mutation, C-terminal sequence 71LALRGG76”, the “formation of UB∼NAE conjugates” value with NAE (E1) was “can function as the wt Nedd8 for thioester formation with NAE and Ubc12”. In addition, the “transfer from NAE to Ubc12 (UB∼Ubc12 conjugates)” value in the test on Ubc12 (E2) is reported as “efficiently forms UB∼Ubc12 conjugates”. Moreover, the “transfer to cullin (cullin modification)” value in the test with cullin-3 is given as “substantial cullin modification at a level similar or exceeding that of wt Nedd8”. Besides, the “activity with NAE” value in the test with NAE [2] was “previously found to be active with NAE”.

Take Nedd8 (from UniProt Q15843): in the test with NAE (Homo sapiens), the Kd was 8.75 µM.

For “Nedd8 mutant: Nedd8 with Ala72 mutated to Arg”, in the test with UAE, the “activation by UAE” value is “can be activated by UAE” and the “increase in affinity with UAE” value is reported as 65 fold.

B1: biotin-pN26 (VLALRGG) (peptide)
peptide: {Biotin-LC-LC}-VLALRGG
notes: also called pN26 conjugated to biotin; source: synthetic peptide (EZBiolab), labelled with NHS-LC-LC-biotin, HPLC purified
For the molecule B1, the binding result with Ubc12 is recorded as “binds”.

Usually Kd stands for the free concentration of one partner at which half of the binding sites on the other are occupied at equilibrium, for simple one-to-one binding.
